Laboratory results reported in the supplement of paper PMC10307832.

Key:
Assay in all cases: relative viability (nuclei count vs DMSO), 5 days (fraction); higher = more cells survive
IDH-C35 + Trametinib = compound: Cc1ccccc1C(C(=O)NC1CCCCC1)N(C(=O)Cn1ccnc1C)c1cccc(F)c1 [IDH-C35] + CC(=O)Nc1cccc(-n2c(=O)n(C3CC3)c(=O)c3c(Nc4ccc(I)cc4F)n(C)c(=O)c(C)c32)c1 [Trametinib] (partner 0.02 µM)
Procedure, shortened: (§1)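 Lung cancer cell lines, seeded in 1536-well plates, were treated the following day by pin tool with a single drug or with five library-drug doses (not always all listed) in √10 steps on top of a fixed anchor-drug dose. Cells were fixed and nuclei stained in one step after 5 days, and nuclei were counted. Relative viability is the nuclei count for treated wells divided by that for vehicle wells, reported as medians of duplicate plates.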

[1] = compound: CC1=C(C(=NN1)C)CC2=C(C3=C(S2)N(C(=O)N(C3=O)C)CC(C)C)C(=O)N4C[C@@H](CO4)O + CS(=O)(=O)CCNCc1ccc(-c2ccc3ncnc(Nc4ccc(OCc5cccc(F)c5)c(Cl)c4)c3c2)o1 [Lapatinib] (partner 2 µM)
Procedure, shortened: as §1

[2] = compound: CC1=C(C(=NN1)C)CC2=C(C3=C(S2)N(C(=O)N(C3=O)C)CC(C)C)C(=O)N4C[C@@H](CO4)O + CS(=O)(=O)N1CCN(Cc2cc3nc(-c4cccc5[nH]ncc45)nc(N4CCOCC4)c3s2)CC1 [Pictilisib] (partner 1 µM)
Procedure, shortened: as §1

[3] = compound: CC1=C(C(=NN1)C)CC2=C(C3=C(S2)N(C(=O)N(C3=O)C)CC(C)C)C(=O)N4C[C@@H](CO4)O + CC(=O)Nc1cccc(-n2c(=O)n(C3CC3)c(=O)c3c(Nc4ccc(I)cc4F)n(C)c(=O)c(C)c32)c1 [Trametinib] (partner 0.02 µM)
Procedure, shortened: as §1

Cell Line: UMC-11
- relative viability (IDH-C35 + Trametinib; first compound 0.08 µM): 0.738
- relative viability (IDH-C35 + Trametinib; first compound 0.253 µM): 0.761
- relative viability (IDH-C35 + Trametinib; first compound 0.8 µM): 0.617
- relative viability (IDH-C35 + Trametinib; first compound 2.53 µM): 0.685
- relative viability (IDH-C35 + Trametinib; first compound 8 µM): 0.772
- relative viability ([1]; first compound 0.0025 µM): 1.12
- relative viability ([1]; first compound 0.007906 µM): 1.03
- relative viability ([1]; first compound 0.025 µM): 0.957
- relative viability ([1]; first compound 0.07906 µM): 1.01
- relative viability ([1]; first compound 0.25 µM): 1.05
- relative viability ([2]; first compound 0.0025 µM): 0.917
- relative viability ([2]; first compound 0.007906 µM): 0.673
- relative viability ([2]; first compound 0.025 µM): 0.785
- relative viability ([2]; first compound 0.07906 µM): 0.921
- relative viability ([2]; first compound 0.25 µM): 0.907
- relative viability ([3]; first compound 0.0025 µM): 0.842
- relative viability ([3]; first compound 0.007906 µM): 0.84
- relative viability ([3]; first compound 0.025 µM): 0.83
- relative viability ([3]; first compound 0.07906 µM): 0.677
- relative viability ([3]; first compound 0.25 µM): 0.993
